ChEMBL document CHEMBL1201862, “PubChem BioAssay data set” (2004)
Calls of active or inactive are those of the source.

Key:
[1] = growth suppression of PTEN-null colon cells, dose response, cell-based, HCT116 PTEN knockout (AID 1047); format: functional;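 note: HCT116 colon tumor cells with PTEN knocked out; cells exposed to compound for 60 hours before readout; potency for loss of cell viability measured by luminescence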
[2] = molecular target: Ion channel NompC (Danio rerio, UniProt Q7T1G6); test: Fluorescence counterscreen assay for TRPML3 agonists: dose response cell-based high-throughput screening assay to identify agonists of the transient receptor potential channel N1 (TRPN1). [Related pubchem assays: 1526, 1424, 1448 ]; format: functional
[3] = growth suppression of beta-catenin-knockout colon cells, dose response, cell-based, HCT116, human colon tumor (AID 1045); format: functional;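 note: HCT116 colon tumor cells with beta catenin knocked out; cells exposed to compound for 60 hours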
[4] = molecular target: Mucolipin-3 (Homo sapiens, UniProt Q8TDD5); test: Dose response cell-based high-throughput screening assay for agonists of the transient receptor potential channel ML3 (TRPML3). [Related pubchem assays: 1526, 1424, 1448 ]; format: functional
[5] = molecular target: Serine/threonine-protein phosphatase (Homo sapiens, UniProt Q9BPW0); test: Counterscreen for inhibitors of PP1: fluorescence-based biochemical high throughput dose response assay to identify inhibitors of Protein Phosphatase 5 (PP5). [Related pubchem assays: 2034 (Summary (PP5 inhibitors)), 1987 (PP5 inhibitors in singlate), 2235 (PP1 inhibitors in singlate)]
[6] = molecular target: Serine/threonine-protein phosphatase PP1-alpha catalytic subunit (Homo sapiens, UniProt P62136); test: PP1 phosphatase inhibitors, dose response, biochemical, fluorescence (AID 2403);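 note: phosphatase turnover of OMFP into fluorescent 3-O-methylfluorescein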
[7] = test system: HEK293; test: NOD1 signaling inhibitors, primary screen, cell-based, luminescence, uHTS (AID 1578); format: functional; conditions: Homo sapiens
[8] = molecular target: T1, Bcl-2-like protein 10 (Homo sapiens, UniProt Q9HD36); test: Biochemical TR3 FP assay of Bcl-B inhibitor potency, EC50 (AID 1243); format: functional
T1 sequence (Q9HD36 whole entry): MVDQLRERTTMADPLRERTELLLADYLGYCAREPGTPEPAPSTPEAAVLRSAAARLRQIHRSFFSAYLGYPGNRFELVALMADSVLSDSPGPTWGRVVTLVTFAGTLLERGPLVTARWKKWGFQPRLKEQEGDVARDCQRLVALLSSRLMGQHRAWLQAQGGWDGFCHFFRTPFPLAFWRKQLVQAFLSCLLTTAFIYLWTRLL

[9] = test system: HEK293; test: cells; format: functional, cell-based; conditions: Homo sapiens
[10] = test system: HEK293; test: NOD2 signaling inhibitors in MDP-stimulated cells, cell-based, uHTS, luminescence (AID 2001); format: functional; conditions: Homo sapiens
[11] = test system: HEK293; test: cells; format: functional, cell-based; conditions: Homo sapiens; remark: listed apart in the source
[12] = molecular target: T2, Neuropeptide Y receptor type 1 (Homo sapiens, UniProt P25929); test: Fluorescence-based counterscreen for agonists of NPY-Y2: cell-based high-throughput dose response assay for agonists of NPY-Y1.; format: functional
T2 sequence (P25929 whole entry): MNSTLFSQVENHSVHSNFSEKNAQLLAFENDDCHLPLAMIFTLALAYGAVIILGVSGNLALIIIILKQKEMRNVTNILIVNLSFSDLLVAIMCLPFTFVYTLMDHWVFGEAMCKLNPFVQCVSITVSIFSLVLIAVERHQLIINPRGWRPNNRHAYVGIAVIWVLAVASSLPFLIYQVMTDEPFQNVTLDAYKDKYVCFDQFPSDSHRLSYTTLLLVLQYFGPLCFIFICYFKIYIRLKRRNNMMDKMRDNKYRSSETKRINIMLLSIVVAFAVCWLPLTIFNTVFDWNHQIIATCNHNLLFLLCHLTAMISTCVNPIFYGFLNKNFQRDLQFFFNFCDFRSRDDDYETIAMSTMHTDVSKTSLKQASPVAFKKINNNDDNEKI

[13] = molecular target: Cytochrome P450 2D6 (Homo sapiens, UniProt P10635);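 note: CYP2D6 member of a cytochrome P450 panel assay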
[14] = molecular target: T3, Neuropeptide Y receptor type 2 (Homo sapiens, UniProt P49146); test: Fluorescence-based cell-based high-throughput dose response assay for agonists of NPY-Y2. [Related pubchem assays: 1703 (Screening assay (CNGC inhibitors).), 1359 (Screening assay (NPY-Y2 potentiators or agonists).), 1304 (Screening assay (NPY-Y1 potentiators or agonists).), 1710 (Screening assay (NPY-Y2 agonists).), 1791 (Summary AID.)]; format: functional
T3 sequence (P49146 whole entry): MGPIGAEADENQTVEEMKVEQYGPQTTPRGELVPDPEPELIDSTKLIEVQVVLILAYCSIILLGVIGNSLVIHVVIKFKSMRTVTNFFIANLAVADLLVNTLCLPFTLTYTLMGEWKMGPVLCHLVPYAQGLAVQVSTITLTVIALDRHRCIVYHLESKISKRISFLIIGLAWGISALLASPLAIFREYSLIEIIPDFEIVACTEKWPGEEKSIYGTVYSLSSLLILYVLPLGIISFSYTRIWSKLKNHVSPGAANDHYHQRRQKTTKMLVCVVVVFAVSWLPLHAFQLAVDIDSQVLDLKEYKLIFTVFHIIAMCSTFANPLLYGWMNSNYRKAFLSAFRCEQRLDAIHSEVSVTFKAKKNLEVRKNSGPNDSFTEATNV

[15] = test system: HEK293; test: Fluorescence-based counterscreen for potentiators or agonists of NPY-Y2: cell-based high-throughput dose response assay to identify inhibitors of cyclic nucleotide gated ion channel (CNGC) activity. In this assay, the parental HEK293 cell line transfected with a cyclic-nucleotide gated ion channel (CNGC)-based cAMP sensor is used to measure inhibition of isoproterenol-induced CNGC activity by test compound.; format: functional; conditions: Homo sapiens
[16] = molecular target: T3, Neuropeptide Y receptor type 2; format: functional, cell-based
[17] = molecular target: Melanocortin receptor 4 (Homo sapiens, UniProt P32245); test: MC4R antagonist potency on cAMP, dose response, cell-based, TR-FRET, biased antagonists (AID 602298); format: functional;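 note: antagonist potency against agonist-stimulated cAMP production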
[18] = molecular target: T2, Neuropeptide Y receptor type 1; format: functional
[19] = nonselective inhibitors of cellular cAMP signaling, dose response, counter-screen for MC4R biased antagonist project, cell-based, TR-FRET cAMP detection (AID 602305); format: functional;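 note: U2OS cells stimulated with forskolin near its EC80 as the cAMP inducer; potency is for inhibition of forskolin-stimulated cAMP signaling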

Chain of Serine/threonine-protein phosphatase PP1-alpha catalytic subunit (P62136 whole entry): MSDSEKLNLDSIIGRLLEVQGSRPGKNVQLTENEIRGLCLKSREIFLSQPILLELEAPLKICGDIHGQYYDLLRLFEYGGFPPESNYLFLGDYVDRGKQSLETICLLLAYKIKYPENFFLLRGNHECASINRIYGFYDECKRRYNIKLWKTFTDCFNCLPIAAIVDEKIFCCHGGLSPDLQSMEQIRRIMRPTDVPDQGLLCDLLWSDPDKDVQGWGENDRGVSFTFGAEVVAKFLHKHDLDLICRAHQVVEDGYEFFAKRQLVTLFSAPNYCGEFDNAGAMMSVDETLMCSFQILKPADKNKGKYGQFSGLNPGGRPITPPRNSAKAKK
Chain of Cytochrome P450 2D6 (P10635 whole entry): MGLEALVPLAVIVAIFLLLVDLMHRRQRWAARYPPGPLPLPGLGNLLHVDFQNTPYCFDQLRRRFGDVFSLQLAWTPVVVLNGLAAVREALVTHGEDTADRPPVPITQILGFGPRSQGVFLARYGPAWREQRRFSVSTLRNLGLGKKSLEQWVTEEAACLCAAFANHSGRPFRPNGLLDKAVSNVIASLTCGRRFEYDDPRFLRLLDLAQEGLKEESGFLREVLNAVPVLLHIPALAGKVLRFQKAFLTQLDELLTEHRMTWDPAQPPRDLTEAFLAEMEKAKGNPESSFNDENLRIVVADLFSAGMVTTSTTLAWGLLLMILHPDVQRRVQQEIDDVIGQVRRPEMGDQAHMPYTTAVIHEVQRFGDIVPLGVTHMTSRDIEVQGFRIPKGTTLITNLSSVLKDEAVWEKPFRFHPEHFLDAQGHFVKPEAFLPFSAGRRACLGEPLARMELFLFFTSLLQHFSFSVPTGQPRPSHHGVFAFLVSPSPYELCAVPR
Chain of Ion channel NompC (Q7T1G6 whole entry): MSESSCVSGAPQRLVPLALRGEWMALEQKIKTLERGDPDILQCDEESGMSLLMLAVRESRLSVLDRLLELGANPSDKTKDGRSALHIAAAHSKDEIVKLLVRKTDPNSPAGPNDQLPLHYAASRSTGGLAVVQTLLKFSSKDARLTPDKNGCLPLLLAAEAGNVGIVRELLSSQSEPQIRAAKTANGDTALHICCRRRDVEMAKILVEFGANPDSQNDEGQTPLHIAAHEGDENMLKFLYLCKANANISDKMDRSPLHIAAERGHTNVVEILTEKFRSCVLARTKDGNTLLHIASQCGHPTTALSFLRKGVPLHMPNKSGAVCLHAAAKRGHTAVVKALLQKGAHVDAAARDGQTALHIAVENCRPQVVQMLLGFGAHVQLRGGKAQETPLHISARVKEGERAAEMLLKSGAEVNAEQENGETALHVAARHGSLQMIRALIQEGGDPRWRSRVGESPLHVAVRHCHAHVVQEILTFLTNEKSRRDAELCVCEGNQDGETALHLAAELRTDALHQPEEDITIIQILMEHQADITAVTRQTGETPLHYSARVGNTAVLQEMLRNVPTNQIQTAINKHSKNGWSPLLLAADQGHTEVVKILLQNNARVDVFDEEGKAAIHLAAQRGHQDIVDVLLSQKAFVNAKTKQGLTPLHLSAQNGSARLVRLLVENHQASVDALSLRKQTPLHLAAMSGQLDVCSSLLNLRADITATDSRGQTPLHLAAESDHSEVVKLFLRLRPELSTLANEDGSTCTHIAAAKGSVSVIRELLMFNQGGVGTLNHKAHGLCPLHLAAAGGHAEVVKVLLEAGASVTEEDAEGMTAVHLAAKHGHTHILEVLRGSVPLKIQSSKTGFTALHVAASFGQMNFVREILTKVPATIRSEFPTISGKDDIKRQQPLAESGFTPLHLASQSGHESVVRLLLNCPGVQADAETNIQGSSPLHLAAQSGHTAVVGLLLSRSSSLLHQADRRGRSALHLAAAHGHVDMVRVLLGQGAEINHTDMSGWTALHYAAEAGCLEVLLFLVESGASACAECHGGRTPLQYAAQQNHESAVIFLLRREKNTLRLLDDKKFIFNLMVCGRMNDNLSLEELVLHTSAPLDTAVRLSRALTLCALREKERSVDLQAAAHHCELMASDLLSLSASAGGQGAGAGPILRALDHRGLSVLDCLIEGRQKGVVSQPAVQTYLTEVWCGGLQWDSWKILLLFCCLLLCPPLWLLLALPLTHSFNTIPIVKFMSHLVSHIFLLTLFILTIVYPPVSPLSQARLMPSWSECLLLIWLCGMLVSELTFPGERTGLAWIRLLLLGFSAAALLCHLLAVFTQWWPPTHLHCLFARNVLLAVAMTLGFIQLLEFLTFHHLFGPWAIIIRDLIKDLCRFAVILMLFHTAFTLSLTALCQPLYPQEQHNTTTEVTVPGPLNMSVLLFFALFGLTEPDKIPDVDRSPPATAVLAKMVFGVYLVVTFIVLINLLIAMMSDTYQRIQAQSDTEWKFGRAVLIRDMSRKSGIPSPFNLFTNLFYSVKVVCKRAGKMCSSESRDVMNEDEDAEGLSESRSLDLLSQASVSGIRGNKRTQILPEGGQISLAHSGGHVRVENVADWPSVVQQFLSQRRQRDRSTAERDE
Chain of Serine/threonine-protein phosphatase (Q9BPW0 whole entry): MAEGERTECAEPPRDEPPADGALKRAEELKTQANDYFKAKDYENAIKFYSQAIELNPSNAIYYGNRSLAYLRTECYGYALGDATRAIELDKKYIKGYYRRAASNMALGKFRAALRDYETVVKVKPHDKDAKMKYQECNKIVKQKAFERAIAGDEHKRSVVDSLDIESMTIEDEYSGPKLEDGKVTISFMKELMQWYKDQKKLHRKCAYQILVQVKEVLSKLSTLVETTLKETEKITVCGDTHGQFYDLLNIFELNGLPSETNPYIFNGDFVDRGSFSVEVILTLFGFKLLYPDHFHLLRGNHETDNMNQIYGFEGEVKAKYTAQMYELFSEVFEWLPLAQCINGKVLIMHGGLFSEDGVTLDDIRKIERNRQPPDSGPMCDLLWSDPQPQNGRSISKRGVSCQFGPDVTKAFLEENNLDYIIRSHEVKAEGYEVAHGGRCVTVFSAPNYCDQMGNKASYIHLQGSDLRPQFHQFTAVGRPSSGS
Chain of Mucolipin-3 (Q8TDD5 whole entry): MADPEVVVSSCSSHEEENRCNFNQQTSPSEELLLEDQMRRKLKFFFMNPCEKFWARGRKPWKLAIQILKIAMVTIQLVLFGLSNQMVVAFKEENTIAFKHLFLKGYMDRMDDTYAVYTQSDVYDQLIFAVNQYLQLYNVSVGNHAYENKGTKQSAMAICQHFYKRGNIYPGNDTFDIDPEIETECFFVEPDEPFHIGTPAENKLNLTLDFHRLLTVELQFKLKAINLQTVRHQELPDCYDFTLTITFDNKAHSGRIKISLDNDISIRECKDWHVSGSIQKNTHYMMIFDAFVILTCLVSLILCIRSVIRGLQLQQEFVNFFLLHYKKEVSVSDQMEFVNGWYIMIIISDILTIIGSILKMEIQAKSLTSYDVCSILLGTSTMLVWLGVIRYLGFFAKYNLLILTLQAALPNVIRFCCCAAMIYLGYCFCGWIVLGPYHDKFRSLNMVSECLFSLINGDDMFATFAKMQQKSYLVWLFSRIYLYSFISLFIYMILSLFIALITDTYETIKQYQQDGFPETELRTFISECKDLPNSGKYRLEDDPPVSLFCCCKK
Chain of Melanocortin receptor 4 (P32245 whole entry): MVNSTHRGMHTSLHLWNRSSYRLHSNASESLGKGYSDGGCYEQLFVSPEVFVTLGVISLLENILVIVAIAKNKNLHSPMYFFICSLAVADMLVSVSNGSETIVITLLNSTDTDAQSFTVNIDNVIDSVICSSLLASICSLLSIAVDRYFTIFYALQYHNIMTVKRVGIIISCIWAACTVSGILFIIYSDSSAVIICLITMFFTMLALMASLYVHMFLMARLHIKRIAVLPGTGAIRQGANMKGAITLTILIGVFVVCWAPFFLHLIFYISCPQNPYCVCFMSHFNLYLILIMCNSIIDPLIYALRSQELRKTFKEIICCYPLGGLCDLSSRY

## CC(c1ccccc1)N(NC(=O)C(O)(c1ccccc1)c1ccccc1)C(=O)c1ccccc1 (centres undefined)
[1]
  EC50: 13.9 µM (active)
[2]
  EC50: > 29.9 µM (not active)
[3]
  EC50: 11.3 µM (active)
[4]
  EC50: > 29.9 µM (not active)

## COc1ccc(NC(=O)C2C3CCC(O3)C2C(=O)O)c(OC)c1 (centres undefined)
[5]
  IC50: 4.79 µM (active)
[6]
  IC50: 4.95 µM (active)

## Nc1[nH]nc2ncc3cc4ccccc4nc3c12
[7]
  EC50: 11.9 µM (active)
[8]
  EC50: 3.74 µM (active)
[9]
  IC50: 7.35 µM (active)
[10]
  IC50: 8.23 µM (active)
[11]
  IC50: > 20 µM (inactive)

## Cc1cccc(C)c1OCC(O)CNC(C)(C)C (centres undefined)
[12]
  EC50: > 35.4 µM (not active)
[13]
  AC50: 8.91 µM (inconclusive)
[14]
  EC50: > 35.4 µM (not active)
[15]
  EC50: 17.9 µM (not active)

## COC(=O)C1=C(C(=O)OC)SC2(S1)C(C(=O)OC)=C(C(=O)OC)SC1=C2c2cccc(C)c2NC1(C)C
[16]
  IC50: > 35 µM (not active)
[17]
  IC50: 3.83 µM (active)
[18]
  IC50: > 35 µM (not active)
[19]
  IC50: > 64.6 µM (inactive)
